Patent US10912814B2, “Combination formulation of three antiviral compounds” (priority 2016, dated 2021)

Tests used:
Assay type in all cases: physicochemical
[1] = Storage stability: appearance, assay/label strength (LS), total impurities/degradation products; conditions: for I/D (%): tablets, desiccant study
Procedure: In some embodiments, the film-coated tablets were packaged in 75 and 100 mL white HDPE bottles (Lots A and B, respectively, as described in Tables 11A, 11B) with 1 g silica gel desiccant canisters and a polyester fiber coil. The 75 and 100 mL HDPE bottles contained fourteen and twenty eight tablets, respectively. Each HDPE bottle was capped using a white, continuous thread, child-resistant polypropylene screw cap with an […], aluminum-faced line. The packaged tablets (14 and 28 counts) were evaluated for stability at 40° C./75% RH and 25° C./60% RH. Additionally, the 14-count bottles (without cap) were evaluated for stability under open conditions at 40° C./75% RH.
For each of the impact studies, the sofosbuvir/velpatasvir SSD/voxilaprevir SSD tablets were packaged in a designated commercial packaging configuration (28-count, 100 mL HPDE bottle, coil, 1 g desiccant), and stored for 12 weeks at 25° C./60% RH and 40° C./75% RH. Tablets were also packaged in open containers (28-count, 100 mL HPDE bottle without cap) and stored for 4 weeks at 40° C./75% RH and for 1 week at 50° C./92% RH.
The sofosbuvir/velpatasvir SSD/voxilaprevir SSD tablets were packaged in the designated commercial packaging configuration (28-count, 100 mL HPDE bottle, coil, 1 g desiccant), and stored for 6 months at 25° C./60% RH and 40° C./75% RH.

[2] = Photostability (light exposure, ICH Q1B); conditions: for Total Imp./Deg. Products (%): tablets
Procedure: In some embodiments, and the Examples presented herein, the tablet formulation includes sofosbuvir having Form 6 and, optionally, a trace amount of Form 7.
Tablet cores and film-coated tablets were evaluated per ICH Q1B guidelines with a total of illumination of more than 1.2 million-lux hours and a total irradiance of more than 200 W·hr/m^2.

[3] = Tablet dissolution in 50 mM sodium acetate buffer pH 5.0 with 2.0% w/v Polysorbate 80 and 0.001% w/v BHT, 75 rpm, 900 mL, 37° C., USP Type II
Procedure: FIGS. 10-12 depict additional dissolution profiles for the sofosbuvir/velpatasvir SSD/voxilaprevir SSD tablets having the formulation described in Table 13 and which were used in phase 1, 2, and 3 clinical studies, where the dissolution testing was conducted at pH 5.0 acetate buffer containing 2.0% w/v polysorbate 80. Four batches of the sofosbuvir/velpatasvir SSD/voxilaprevir SSD tablets were tested, with Batch A manufactured at 100 kg and Batches B, C and D manufactured at 145 kg. All other aspects of the formulation and manufacturing process were otherwise equivalent. The four batches were packed in the same commercial configuration: 28 count, 100 mL HPDE bottle with 1 g silica gel desiccant canister and a polyester fiber coil. […] Moreover, for Batch A, the amount dissolved at 30 min remained between 98 and 100% for sofosbuvir, between 90 and 92% for velpatasvir SSD, and between 89 and 93% for voxilaprevir SSD. […] For Batch D, the amount dissolved at 30 min remained at 100% for sofosbuvir, between 90 and 91% for velpatasvir SSD, and between 89 and 91% for voxilaprevir SSD. Release of velpatasvir SSD and voxilaprevir SSD from the sofosbuvir/velpatasvir SSD/voxilaprevir SSD tablets associated with all four Batches was complete after 60 minutes.

## CC(C)OC(=O)C(C)N[P@](=O)(OC[C@H]1O[C@@H](n2ccc(=O)[nH]c2=O)[C@](C)(F)[C@@H]1O)Oc1ccccc1 (stereo in doubt) [Sofosbuvir, (S)-isopropyl 2-(((S)-(((2R,3R,4R,5R)-5-(2,4-dioxo-3,4-dihydropyrimidin-1(2H)-yl)-4-fluoro-3-hydroxy-4-methyltetrahydrofuran-2-yl)methoxy)(phenoxy)phosphoryl)amino)propanoate]
[1]; tablets Lot B, 40° C./75% RH Closed, 1 mo
  Total Imp./Deg. (%): 0.0%
[1]; tablets Lot B, 40° C./75% RH Closed, 3 mo
  Total Imp./Deg. (%): 0.0%
[1]; tablets Lot B, 40° C./75% RH Closed, 6 mo
  Total Imp./Deg. (%): 0.0%
[1]; tablets Lot B, Initial, 0 mo
  Total Imp./Deg. (%): 0.0%
[1]; tablets from SSDs made with high-peroxide copovidone (544 ppm VEL SSD, 655 ppm VOX SSD)
  total impurities/degradation products: 0.0%
[1]; tablets from VEL SSD 7.0% / VOX SSD 3.2% water content, Initial, time 0
  Total Imp./Deg. (%): 0.0%
[1]; tablets from VEL SSD 7.0% / VOX SSD 3.2% water content, closed, 1 g desiccant, 25° C./60% RH, 12 weeks
  Total Imp./Deg. (%): 0.0%
[1]; tablets from VEL SSD 7.0% / VOX SSD 3.2% water content, closed, 1 g desiccant, 40° C./75% RH, 4 weeks
  Total Imp./Deg. (%): 0.0%
[1]; tablets from VEL SSD 7.0% / VOX SSD 3.2% water content, closed, 1 g desiccant, 40° C./75% RH, 12 weeks
  Total Imp./Deg. (%): 0.0%
[1]; tablets from VEL SSD 7.0% / VOX SSD 3.2% water content, open, no desiccant, 40° C./75% RH, 4 weeks
  Total Imp./Deg. (%): 0.0%
[1]; tablets from VEL SSD with 6.0% residual ethanol and VOX SSD with 2.1% residual acetone, all conditions
  total impurities/degradation products: 0.0%
[1]; tablets from VEL SSD with 7.0% and VOX SSD with 3.2% water content, all conditions
  total impurities/degradation products: 0.0%
[1]; tablets from copovidone with 544 ppm (VEL SSD) / 655 ppm (VOX SSD) peroxides, Initial, time 0
  Total Imp./Deg. (%): 0.0%
[1]; tablets from copovidone with 544 ppm (VEL SSD) / 655 ppm (VOX SSD) peroxides, closed, 1 g desiccant, 25° C./60% RH, 12 weeks
  Total Imp./Deg. (%): 0.0%
[1]; tablets from copovidone with 544 ppm (VEL SSD) / 655 ppm (VOX SSD) peroxides, closed, 1 g desiccant, 40° C./75% RH, 4 weeks
  Total Imp./Deg. (%): 0.0%
[1]; tablets from copovidone with 544 ppm (VEL SSD) / 655 ppm (VOX SSD) peroxides, closed, 1 g desiccant, 40° C./75% RH, 12 weeks
  Total Imp./Deg. (%): 0.0%
[1]; tablets from copovidone with 544 ppm (VEL SSD) / 655 ppm (VOX SSD) peroxides, open, no desiccant, 40° C./75% RH, 4 weeks
  Total Imp./Deg. (%): 0.0%
[1]; closed, 1 g desiccant, 25° C./60% RH, 12 weeks
  I/D (%): 0.0%
[1]; closed, 1 g desiccant, 25° C./60% RH, 24 weeks
  I/D (%): 0.0%
[1]; closed, 1 g desiccant, 40° C./75% RH, 4 weeks
  I/D (%): 0.0%
[1]; closed, 1 g desiccant, 40° C./75% RH, 12 weeks
  I/D (%): 0.0%
[1]; closed, 1 g desiccant, 40° C./75% RH, 24 weeks
  I/D (%): 0.0%
[1]; closed, no desiccant, 25° C./60% RH, 12 weeks
  I/D (%): 0.0%
[1]; closed, no desiccant, 25° C./60% RH, 24 weeks
  I/D (%): 0.0%
[1]; closed, no desiccant, 40° C./75% RH, 4 weeks
  I/D (%): 0.0%
[1]; closed, no desiccant, 40° C./75% RH, 12 weeks
  I/D (%): 0.0%
[1]; closed, no desiccant, 40° C./75% RH, 24 weeks
  I/D (%): 0.0%
[2]; tablets film-coated to weight gains of 2.1 to 5.4%, ICH Q1B
  level of degradation products: 0.0%
[2]; film-coating 0% weight gain, Exposed to Light
  Total Imp./Deg. Products (%): 0.0%
[2]; film-coating 0% weight gain, Protected from Light
  Total Imp./Deg. Products (%): 0.0%
[2]; film-coating 2.1% weight gain, Exposed to Light
  Total Imp./Deg. Products (%): 0.0%
[2]; film-coating 2.1% weight gain, Protected from Light
  Total Imp./Deg. Products (%): 0.0%
[2]; film-coating 3.4% weight gain, Exposed to Light
  Total Imp./Deg. Products (%): 0.0%
[2]; film-coating 3.4% weight gain, Protected from Light
  Total Imp./Deg. Products (%): 0.0%
[2]; film-coating 4.1% weight gain, Exposed to Light
  Total Imp./Deg. Products (%): 0.0%
[2]; film-coating 4.1% weight gain, Protected from Light
  Total Imp./Deg. Products (%): 0.0%
[2]; film-coating 5.4% weight gain, Exposed to Light
  Total Imp./Deg. Products (%): 0.0%
[2]; film-coating 5.4% weight gain, Protected from Light
  Total Imp./Deg. Products (%): 0.0%
[3]; Batch C tablets, closed 1 g desiccant, 30° C./75% RH, 6 months
  Dissolved at 30 min (%): 99%
[3]; Batch C tablets, closed 1 g desiccant, 40° C./75% RH, 1 month
  Dissolved at 30 min (%): 100%
[3]; Batch C tablets, closed 1 g desiccant, Initial, time 0
  Dissolved at 30 min (%): 99%
[3]; tablets Batch A, 30° C./75% RH, 6 mo
  Dissolved at 30 min (%): 100%
[3]; tablets Batch A, 40° C./75% RH, 3 mo
  Dissolved at 30 min (%): 99%
[3]; tablets Batch A, Initial, 0 mo
  Dissolved at 30 min (%): 98%
[3]; tablets Batch B, 40° C./75% RH, 6 mo
  Dissolved at 30 min (%): 98%
[3]; tablets Batch D
  amount dissolved at 30 min: 100%
[3]; tablets Batch D, 40° C./75% RH, 1 mo
  Dissolved at 30 min (%): 100%
